Series [1] addresses T1, PARP1 (Homo sapiens, UniProt P09874). Details: method as in PMID 18579376, PMID 18800822, PMID 24388690, PMID 28340412, PMID 36183505. As to conditions: in figure; cited from earlier work.
The subject of a further series is MDA-MB-231. The experiment in a line: MTT cell viability assay, MDA-MB-231. The class given is cell-based. As to conditions: Homo sapiens, 72 h, mean ± SEM, read-out: Cytotoxicity IC50 MDA-MB-231. As to the method: (§1) MDA-MB-468, MDA-MB-231, MCF-7, and MCF-10A cell lines were obtained from the National Collection of Authenticated Cell Culture, China. The cells were cultured in DMEM medium supplemented with 10% FBS and 1% penicillin/streptomycin, and maintained at 37 °C in a humidified atmosphere with 5% CO2.
(§2) Cell viability was assessed using the MTT assay. Cells were seeded at a density of 3 × 10^3 cells per well in a 96-well plate and treated with various concentrations (0.05, 0.2, 0.8, 3.2, 6.4, 12.8 µM) of the compounds for 72 h. After incubation, 100 µL of MTT solution (0.5 mg/mL) was added to each well and further incubated for 4 h. The resulting formazan crystals were dissolved in 150 µL of DMSO, and the absorbance was measured at 570 nm using a microplate reader.

For a further series, the system named is MDA-MB-468. In words: MTT cell viability assay, MDA-MB-468. The class given is cell-based. Conditions: Homo sapiens, 72 h, mean ± SEM, read-out: Cytotoxicity IC50 MDA-MB-468. As for the experimental part:
as §1, §2

For the next series, the system named is MCF-7. The experiment in a line: MTT cell viability assay, MCF-7. The series is classed as cell-based. Conditions: Homo sapiens, MCF7, 72 h, mean ± SEM, read-out: Cytotoxicity IC50 MCF-7. As for the experimental part: as §1, §2
A general note: Tetrazolium assays rely on reduction of a dye to a coloured formazan, in cell work by metabolically active cells.

A short description of series [2]: MTT cell viability assay, MCF-10A normal breast epithelial cells. The series is classed as cell-based, human. Conditions: human, MCF-10A normal breast epithelial cells; MCF-10A; mean ± SEM; read-out: Cytotoxicity IC50. As for the experimental part: as §1, §2
Another series concerns MCF-10A. Described as above. The class given is cell-based, human. Conditions: for viability at 3 µM: Homo sapiens, 72 h, MCF-10A, mean ± SEM, read-out: Cell Survival Rate. As for the experimental part: as §1, §2
In series [3] the test system is MDA-MB-468 cells. The experiment in a line: NMN rescue of cytotoxicity. The class given is cell-based. Conditions: 200 μM NMN. The text has this: NMN is the direct product of the NAMPT-catalyzed reaction. Excessive NMN can counteract the inhibitory effect of NAMPT inhibition. […] The reversal of DDY02’s efficacy by NMN underscores the compound’s mechanism of action and confirms the critical role of NAMPT inhibition in mediating its therapeutic effects. This observation also emphasizes the potential of NMN as a modulator in therapeutic scenarios involving NAMPT-targeted treatments.

The subject of series [4] is MDA-MB-468 cells. The experiment in a line: Western blot of γ-H2AX. The class given is cell-based. Conditions: 24 h. As for the experimental part:
(§3) Cells were then lysed using RIPA buffer supplemented with protease and phosphatase inhibitors. Protein concentrations were determined using the BCA Protein Assay Kit (Thermo Fisher Scientific^TM, Waltham, MA, USA). Equal amounts of protein (20–30 µg) were separated by SDS-polyacrylamide gel electrophoresis and transferred to a polyvinylidene fluoride (PVDF) membrane. The membrane was blocked with 5% milk in PBS before incubation with primary antibodies. Primary antibodies against γ-H2AX (Cell Signaling Technology™, Danvers, MA, USA), BCL2 (Abcam™, Cambridge, UK), and β-actin (Proteintech™, Rosemont, IL, USA) were used. After overnight incubation at 4 °C, membranes were washed and incubated with HRP-conjugated secondary antibodies for 1 h. Protein bands were visualized using ECL reagents (Labgic Technology^TM, Beijing, China).
For orientation: Immunoblotting shows a protein as a band on a membrane.

Series [5] has as its system MDA-MB-468 cells. In words: Western blot of BCL2. The series is classed as cell-based. Conditions: 24 h. As to the method:
as §3

Series [6] concerns MDA-MB-468 cells. The experiment in a line: Wound scratch cell migration assay. The series is classed as cell-based. As to conditions: up to 48 h. As for the experimental part:
MDA-MB-468 cells were plated in 6-well plates at a density of 5 × 10^5 cells/well and allowed to incubate overnight. A scratch was carefully generated in the cell monolayer using a 10 µL pipette tip. […] Images were acquired at 0, 12, 24, and 48 h time points to monitor and analyze the migration of cells over the specified intervals.

For another series, the target named is NAMPT (Homo sapiens, UniProt P43490). In words: NAMPT enzymatic inhibition assay (fluorescence, coupled NMNAT/alcohol dehydrogenase). The class given is biochemical. Conditions: mean ± SD of at least two independent experiments in duplicate.
NAMPT, sequence (P43490 whole entry): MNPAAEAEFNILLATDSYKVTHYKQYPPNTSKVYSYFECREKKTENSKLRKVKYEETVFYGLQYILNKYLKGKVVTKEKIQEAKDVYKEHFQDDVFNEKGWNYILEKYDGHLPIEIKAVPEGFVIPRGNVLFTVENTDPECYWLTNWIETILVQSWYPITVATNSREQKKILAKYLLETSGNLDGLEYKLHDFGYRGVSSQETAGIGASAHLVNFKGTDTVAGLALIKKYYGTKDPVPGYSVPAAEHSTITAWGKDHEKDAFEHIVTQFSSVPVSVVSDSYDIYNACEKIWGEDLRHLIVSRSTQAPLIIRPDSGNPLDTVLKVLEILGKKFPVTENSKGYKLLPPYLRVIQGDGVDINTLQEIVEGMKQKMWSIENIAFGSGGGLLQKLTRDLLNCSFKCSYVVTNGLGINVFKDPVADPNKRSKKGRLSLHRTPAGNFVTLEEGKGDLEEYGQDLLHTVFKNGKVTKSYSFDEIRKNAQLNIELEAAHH
Series [7] addresses T1, PARP1. In words: PARP1 enzymatic inhibition assay (ELISA, chemiluminescence). The class given is biochemical. On the technique in general: An ELISA detects its analyte on a solid surface through an enzyme-linked reagent.
For series [8], the system named is MDA-MB-468 cells. In words: Annexin V-FITC/PI apoptosis assay (flow cytometry). The series is classed as cell-based. Conditions: 72 h. As for the experimental part: To investigate whether DDY02 induced apoptosis in MDA-MB-468 cells, we performed the annexin V/PI double staining assay, and the staining results were analyzed by flow cytometry, dividing the results into four quadrants (Q1~Q4). In this representation, Q1 represents necrosis, Q2 represents late apoptosis, Q3 represents early apoptosis, and Q4 represents living cells.
The Annexin V-FITC/PI cell apoptosis detection kit (KeyGen Biotech, Nanjing, China) was employed for the analysis of cell apoptosis. MDA-MB-468 cells (5 × 10^5 cells/mL) were seeded in six-well plates and treated with compounds at corresponding concentrations for 72 h. Subsequently, MDA-MB-468 cells were harvested and incubated with 5 μL of Annexin V-FITC and 5 μL of propidium iodide (PI) in the dark for 15 min at room temperature. Apoptosis data were assessed using flow cytometry (Accuri C6 Plus, BD Bioscience, San Jose, CA, USA).

For series [9], the system named is MDA-MB-468 cells. In words: Colony formation (clonogenic) assay. The series is classed as cell-based. Conditions: MDA-MB-468, 7 days. As for the experimental part:
MDA-MB-468 cells were plated in 6-well plates at a density of 500 cells/well and allowed to grow for 7 days to promote colony formation. Following the incubation period, cells were washed with PBS, fixed in methanol for 15 min, and stained with 1% crystal violet for 1 h. Subsequently, colonies were imaged and counted.

The subject of series [10] is MDA-MB-468 cells. In words: Cellular NAD level determination (NAD+/NADH WST-8 kit). The series is classed as cell-based. As to the method: According to the manufacturer’s instructions, an NAD^+/NADH Assay kit with WST-8 (Beyotime, China) was used to measure the intracellular NAD level. The cells collected by centrifugation were added to NAD^+/NADH lysis buffer to obtain a cell lysate. After adding […] working solution, the lysate was incubated at 37 °C for 10 min, and then followed by the addition of color-developing solution. The total concentration of NADH and NAD can be measured by detecting the absorbance at 450 nm. To measure the concentration of NADH, the cell lysate was incubated at 60 °C for 30 min before adding […] working solution. Finally, the NAD content is obtained by the subtraction [NAD^+] = [NADH + NAD^+] − [NADH].

Series [11] deals with MDA-MB-468 cells. The experiment in a line: Comet assay (DNA damage). As to conditions: 24 h, several concentrations. The class given is cell-based. As for the experimental part:
The comet assay was conducted under alkaline conditions using the Comet Assay Kit (Beyotime, Shanghai, China) following the manufacturer’s guidelines. […] This mixture was spread onto microscope slides and immersed in lysis solution for 1 h. Electrophoresis was carried out in a horizontal apparatus at 25 V and 300 mA. After electrophoresis, slides were stained with propidium iodide (PI) for DNA visualization, and images were captured using a fluorescence inverted microscope.

For series [12], the system named is MDA-MB-468 cells. In words: Cell cycle analysis (PI staining, flow cytometry). The class given is cell-based. As to conditions: 48 h, several concentrations. As for the experimental part:
Cell cycle distribution was determined using a DNA Content Quantitation Assay Kit (Solarbio, China). MDA-MB-468 cells were seeded in six-well plates and treated with various […]
treatment, cells were harvested, ﬁxed in 70% ethanol at 4°C overnight, and washed with PBS.
Cells were then incubated with RNase (100 µL) at 37°C for 30 minutes followed by propidium iodide (PI) staining (400 µL, 30 minutes, 4°C in the dark). Cell cycle distribution was analyzed using an Accuri C6 Plus ﬂow cytometer (BD Biosciences, CA) and data were processed using […]
Figure S5. DDY02 induced cell cycle of MDA-MB-468 cells arrest in the G1 phase.
(1 picture or pasted object on this page, not shown here)

Read-outs that look alike come from different tables or passages of the source.

T1 sequence (P09874 whole entry): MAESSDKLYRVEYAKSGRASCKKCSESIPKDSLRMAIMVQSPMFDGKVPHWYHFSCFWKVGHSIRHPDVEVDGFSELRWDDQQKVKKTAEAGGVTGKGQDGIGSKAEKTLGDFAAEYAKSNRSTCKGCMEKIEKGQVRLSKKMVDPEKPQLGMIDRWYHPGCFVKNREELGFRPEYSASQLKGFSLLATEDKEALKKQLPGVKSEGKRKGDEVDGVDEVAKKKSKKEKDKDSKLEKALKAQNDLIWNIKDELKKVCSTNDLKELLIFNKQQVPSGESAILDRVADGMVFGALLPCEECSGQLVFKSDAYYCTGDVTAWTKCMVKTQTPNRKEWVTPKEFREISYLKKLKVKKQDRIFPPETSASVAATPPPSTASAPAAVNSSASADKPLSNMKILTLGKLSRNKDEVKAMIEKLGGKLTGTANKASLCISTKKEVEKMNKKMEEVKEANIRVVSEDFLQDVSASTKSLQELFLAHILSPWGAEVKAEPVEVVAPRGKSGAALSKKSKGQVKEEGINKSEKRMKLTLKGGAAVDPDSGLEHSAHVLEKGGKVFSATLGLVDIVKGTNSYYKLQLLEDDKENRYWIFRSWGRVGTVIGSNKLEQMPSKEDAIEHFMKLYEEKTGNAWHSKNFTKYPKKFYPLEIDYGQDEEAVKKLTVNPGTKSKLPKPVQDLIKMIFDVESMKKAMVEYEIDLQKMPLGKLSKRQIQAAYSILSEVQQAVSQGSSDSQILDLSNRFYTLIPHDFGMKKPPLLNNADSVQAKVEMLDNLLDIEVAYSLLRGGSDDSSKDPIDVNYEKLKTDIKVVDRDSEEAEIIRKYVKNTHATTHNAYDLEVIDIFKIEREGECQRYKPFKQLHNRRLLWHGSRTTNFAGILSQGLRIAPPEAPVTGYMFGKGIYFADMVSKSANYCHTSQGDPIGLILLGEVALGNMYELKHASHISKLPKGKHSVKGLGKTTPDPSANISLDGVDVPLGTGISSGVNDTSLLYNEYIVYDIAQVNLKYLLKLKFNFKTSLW

Broadly, the IC50 is the point on the concentration scale where inhibition reaches its midpoint. Turning to `NC(=O)c1ccccc1OCc1ccc(F)c(C(=O)N2CCN(C(=O)C3CCCC3)CC2)c1` [Compound 16], at PARP1 [1], the half-maximal inhibitory concentration (IC50) was 0.061 µM.

With `O=C(/C=C/c1cccnc1)NCCCCC1CCN(C(=O)c2ccccc2)CC1` [FK866, reference compound], the IC50 worked out at 3.83 ± 0.12 µM with MDA-MB-231, 4.01 ± 0.21 µM with MDA-MB-468 and 5.8 ± 0.86 µM in the series with MCF-7. Also, the IC50 at 72 h in series [2] stood at 4.41 ± 0.22 µM. The viability at 3 µM with MCF-10A came to 65.49 ± 0.41%. In addition, the “cytotoxic effects after preincubation with NMN” value in the series on MDA-MB-468 cells [3] is on record as “reversed the cytotoxic effects”. Moreover, the “accumulation of γ-H2AX” value in the series on MDA-MB-468 cells [4] (1 μM) was “promoted the accumulation of γ-H2AX”. Moreover, the BCL2 expression result in the series with MDA-MB-468 cells [5] (1 μM) was “no effect on the expression of BCL2”. Besides, in the series on MDA-MB-468 cells [6] (1 μM), the “inhibitory effect on cell migration” value was “weakest inhibitory activity”.

A word on the melting point: it is the temperature of the solid-liquid transition. As to `O=C(NCc1cccnc1)Nc1ccc(S(=O)(=O)N2CCN(C(=O)c3cc(Cc4n[nH]c(=O)c5ccccc45)ccc3F)CC2)cc1` [DDY02, 1-(4-((4-(2-Fluoro-5-((4-oxo-3,4-dihydrophthalazin-1-yl)methyl)benzoyl)piperazin-1-yl)sulfonyl)phenyl)-3-(pyridin-3-ylmethyl)urea], the melting point lay within 197 to 198 °C. Further, the concentration for half-maximal inhibition (IC50) at NAMPT turned out to be 0.01 ± 0.003 µM. The same compound displayed an IC50 against PARP1 [7] (mean ± SD of at least two independent experiments in duplicate) of 0.05 ± 0.01 µM. Further, the “fold decrease in inhibitory capacity against PARP1 compared to DDY01” value at PARP1 [7] (ratio of IC50 values) was 5.5 fold. Further, in the series with MDA-MB-231, the IC50 is 10.4 ± 0.16 µM. The concentration for half-maximal inhibition (IC50) with MDA-MB-468 stood at 4.43 ± 0.04 µM. Also, the IC50 in the series with MCF-7 was 7.61 ± 0.14 µM. Moreover, in series [2], the IC50 at 72 h was found to be 5.31 ± 0.12 µM. Also, in the series with MCF-10A, the viability at 3 µM is 70.3 ± 1.06%. Also, the “selectivity of cytotoxic activity between breast cancer cells and normal cells (MCF-10A)” value in the series with MCF-10A (comparison of Tables 2 and 3) is given as “no selectivity”. Further, the “percentage of apoptotic cells (Q2 + Q3)” value in the series with MDA-MB-468 cells [8] (0.3 µM) worked out at 13.34%. For the same compound, in the series with MDA-MB-468 cells [8] (1 μM), the “levels of apoptosis (comparison)” value is “higher levels of apoptosis compared to Olaparib and FK866 alone”; the “percentage of apoptotic cells (Q2 + Q3)” value came out at 21.20%. Further, the “percentage of apoptotic cells (Q2 + Q3)” value in the series on MDA-MB-468 cells [8] (3 µM) is listed as 48.3%. Also, in the series on MDA-MB-468 cells [9] (1 μM), the colony formation result is reported as “more potent ability to inhibit colony formation compared to Olaparib, albeit slightly less effective than FK866”. Also, the colony formation result with MDA-MB-468 cells [9] (several concentrations) is on record as “dose-dependent suppression of colony formation”. The “cytotoxic effects after preincubation with NMN” value in the series with MDA-MB-468 cells [3] is “reversed the cytotoxic effects”. In addition, in the series on MDA-MB-468 cells [10] (24 h, 1 μM), the “cellular NAD levels” value is listed as “marginally less potent than FK866”. In addition, the “cellular NAD levels” value in the series on MDA-MB-468 cells [10] (24 h post-treatment, several concentrations) is “reduced cellular NAD levels in a dose-dependent manner”. For the same compound, the “accumulation of γ-H2AX” value in the series with MDA-MB-468 cells [4] (1 μM) is “most substantial effect”. Further, the “accumulation of γ-H2AX” value in the series with MDA-MB-468 cells [4] (several concentrations) is recorded as “dose-dependent accumulation of γ-H2AX”. Also, the “DNA damage (comet assay)” value with MDA-MB-468 cells [11] is listed as “increased DNA damage in a concentration-dependent manner”. The BCL2 expression result in the series with MDA-MB-468 cells [5] (several concentrations) is recorded as “inhibited BCL2 expression in a dose-dependent manner”. The “inhibitory effect on cell migration” value in the series with MDA-MB-468 cells [6] (1 μM) is given as “slightly less pronounced inhibitory effect”. Besides, the “inhibitory effect on cell migration” value with MDA-MB-468 cells [6] (3 μM) is reported as “further augmented”. In the series on MDA-MB-468 cells [12], the cell cycle distribution entry is “dose-dependent G1-phase cell cycle arrest”.

Values taken from PMC11206297, “Targeting NAD Metabolism: Rational Design, Synthesis and In Vitro Evaluation of NAMPT/PARP1 Dual-Target Inhibitors as Anti-Breast Cancer Agents” (Molecules, 2024).
